Among the test systems are CCRF-CEM leukemia; COLO 205 colon; DU-145 prostate; MOLT-4 leukemia; NCI-H23 lung; NCI-H460 lung; NCI/ADR-RES ovarian; SF-268 CNS; SNB-19 CNS; SW-620 colon.
What all share (assay): NCI tumour cell line growth inhibition, 48 h

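Values below derive from 48-hour exposures of cells grown in 96-well plates, with endpoints linearly interpolated between the two concentrations bracketing the appropriate inhibition level. Here, GI50 denotes the concentration required for 50% inhibition of growth. Definition used: TGI = concentration required for complete inhibition of growth.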

Consider `Oc1c(I)cc(-c2nc3ccccc3s2)cc1CN(Cc1ccccn1)Cc1ccccn1`, for which the GI50 in the experiment with CCRF-CEM leukemia was 350 nM; with COLO 205 colon, 352 nM; in the experiment with DU-145 prostate, 616 nM; in the experiment on MOLT-4 leukemia, 327 nM; in the experiment with NCI-H23 lung, 866 nM; with NCI-H460 lung, 327 nM. Besides, the GI50 is 411 nM in the experiment with NCI/ADR-RES ovarian, 301 nM in the experiment on SF-268 CNS, 387 nM in the experiment on SNB-19 CNS and 402 nM with SW-620 colon. The TGI was more than 100 µM with CCRF-CEM leukemia; 20.7 µM in the experiment with COLO 205 colon; more than 100 µM in the experiment with DU-145 prostate; more than 100 µM with MOLT-4 leukemia; more than 100 µM in the experiment with NCI-H23 lung; 5.94 µM in the experiment with NCI-H460 lung. In addition, the TGI in the experiment on NCI/ADR-RES ovarian is 2.93 µM; in the experiment on SF-268 CNS, 95.2 µM; in the experiment on SNB-19 CNS, more than 100 µM; in the experiment with SW-620 colon it was 3.32 µM.

For `C[C@@H](Oc1ccc2[nH]nc(/C=C/c3cnn(CCO)c3)c2c1)c1c(Cl)cncc1Cl`, the GI50 with CCRF-CEM leukemia was 105 nM; with COLO 205 colon, 107 nM; in the experiment with DU-145 prostate, 413 nM; in the experiment on MOLT-4 leukemia, 488 nM; with NCI-H23 lung it was 79.6 nM; in the experiment with NCI-H460 lung, 86.6 nM. Moreover, the GI50 with NCI/ADR-RES ovarian was 697 nM; with SF-268 CNS, 177 nM; with SNB-19 CNS, 364 nM; with SW-620 colon, 57.4 nM. In addition, the TGI is 5 µM in the experiment on CCRF-CEM leukemia; 0.306 µM in the experiment on COLO 205 colon; more than 43.6 µM with DU-145 prostate; 3.34 µM with MOLT-4 leukemia; 2.18 µM in the experiment with NCI-H23 lung; 1.62 µM with NCI-H460 lung. For the same compound, the TGI in the experiment with NCI/ADR-RES ovarian is 3.81 µM; in the experiment with SF-268 CNS, 1.49 µM; with SNB-19 CNS, 3.52 µM; in the experiment on SW-620 colon it was more than 100 µM.

As for `C1=C(c2ccccc2)C(c2ccc(OCCN3CCCCC3)cc2)Oc2ccccc21` (stereo not given), the GI50 in the experiment on CCRF-CEM leukemia was 2460 nM; with COLO 205 colon it was 1620 nM; in the experiment on DU-145 prostate, 2730 nM; with MOLT-4 leukemia, 2370 nM; with NCI-H23 lung, 2290 nM; in the experiment on NCI-H460 lung, 1940 nM. For the same compound, the GI50 was 2400 nM with NCI/ADR-RES ovarian, 2660 nM in the experiment with SF-268 CNS, 2060 nM in the experiment on SNB-19 CNS and 1830 nM with SW-620 colon. Also, the TGI in the experiment on CCRF-CEM leukemia turned out to be 6.46 µM; with COLO 205 colon, 3.15 µM; in the experiment with DU-145 prostate, 9.12 µM; in the experiment with MOLT-4 leukemia, 5.84 µM; in the experiment with NCI-H23 lung, 6.3 µM; in the experiment on NCI-H460 lung, 3.72 µM. Moreover, the TGI with NCI/ADR-RES ovarian stood at 8.16 µM; in the experiment on SF-268 CNS, 9.93 µM; in the experiment with SNB-19 CNS it was 4.16 µM; in the experiment on SW-620 colon it was 3.62 µM.

Regarding `Cc1ccc2c(c1)O/C(=C\c1ccc([N+](=O)[O-])o1)C2=O`, the GI50 is 424 nM in the experiment on CCRF-CEM leukemia; 1430 nM in the experiment with COLO 205 colon; 2250 nM in the experiment with DU-145 prostate; 2350 nM in the experiment with MOLT-4 leukemia; 1940 nM in the experiment on NCI-H23 lung; 1580 nM in the experiment with NCI-H460 lung. For the same compound, the GI50 in the experiment with NCI/ADR-RES ovarian is 2850 nM; with SF-268 CNS it was 1910 nM; in the experiment on SNB-19 CNS, 3980 nM; in the experiment on SW-620 colon, 296 nM. For the same compound, the TGI in the experiment on CCRF-CEM leukemia was found to be 2.61 µM; in the experiment on COLO 205 colon it was 3.28 µM; in the experiment with DU-145 prostate, 6.4 µM; with MOLT-4 leukemia, 7.52 µM; in the experiment with NCI-H23 lung, 4.82 µM; with NCI-H460 lung, 3.22 µM. Moreover, the TGI in the experiment with NCI/ADR-RES ovarian stood at 23.1 µM; in the experiment with SF-268 CNS, 5.03 µM; in the experiment with SNB-19 CNS it was 21.6 µM; in the experiment on SW-620 colon, 1.27 µM.

For the compound `COc1ccc(Cl)cc1NC(=O)c1cccc([N+](=O)[O-])c1O`, the TGI with CCRF-CEM leukemia was more than 100 µM; in the experiment on COLO 205 colon, 32 µM; in the experiment with DU-145 prostate, more than 100 µM; in the experiment on MOLT-4 leukemia, more than 100 µM; with NCI-H23 lung, 40.7 µM; in the experiment on NCI-H460 lung, more than 81.2 µM. In addition, the TGI is 64.4 µM with NCI/ADR-RES ovarian, more than 100 µM in the experiment with SF-268 CNS, more than 100 µM in the experiment with SNB-19 CNS and more than 100 µM in the experiment on SW-620 colon.

As to `C=CCC(N[C@H](CO)c1ccccc1)c1cn(S(=O)(=O)c2ccc(C)cc2)c2ccccc12` (stereo not given in full), the GI50 was 22600 nM in the experiment on CCRF-CEM leukemia; 35300 nM in the experiment on COLO 205 colon; 26700 nM in the experiment with DU-145 prostate; 15200 nM in the experiment with MOLT-4 leukemia; 20300 nM in the experiment on NCI-H23 lung; more than 100000 nM with NCI-H460 lung. For the same compound, the GI50 with NCI/ADR-RES ovarian was 18900 nM; in the experiment with SF-268 CNS, more than 100000 nM; in the experiment on SNB-19 CNS, 60800 nM; in the experiment on SW-620 colon, 31800 nM. The TGI is 76.7 µM in the experiment on CCRF-CEM leukemia; more than 100 µM with COLO 205 colon; 67.2 µM with DU-145 prostate; 41.4 µM in the experiment with MOLT-4 leukemia; 43.5 µM in the experiment with NCI-H23 lung; more than 100 µM in the experiment on NCI-H460 lung. Further, the TGI was 46.2 µM with NCI/ADR-RES ovarian, more than 100 µM with SF-268 CNS, more than 100 µM in the experiment with SNB-19 CNS and 85.9 µM in the experiment with SW-620 colon.

As for `CC(=O)OC1CCC2(C)C(=CCC3C4CCC5(OC6CC(C)CN(C(C)=O)C6C5C)C(C)=C4C(=O)C32)C1` (stereo not given), the TGI in the experiment on CCRF-CEM leukemia is more than 100 µM; with COLO 205 colon, 32.4 µM; with DU-145 prostate it was more than 100 µM; in the experiment on MOLT-4 leukemia, 23.6 µM; with NCI-H23 lung, 29.6 µM; in the experiment with NCI-H460 lung, 35.1 µM. In addition, the TGI with NCI/ADR-RES ovarian was 49.5 µM; in the experiment on SF-268 CNS, 31.4 µM; in the experiment with SNB-19 CNS, 32.7 µM; with SW-620 colon, more than 100 µM.

(Values after PubChem BioAssay (NCI).)
